# Experimental data taken from patent US20180353445A1, “METHODS AND COMPOSITIONS RELATING TO PROTEASOME INHIBITOR RESISTANCE” (Whitehead Institute for Biomedical Research, priority 2017, published 2018).
# Key:
# Format in all cases: cell-based, human
# [1] = tested on: IMR32 (reduced PSMD5) and Kelly neuroblastoma cells; test: Viability of IMR32 versus Kelly neuroblastoma cells (CellTiter-Glo); details: ABT-263 versus more specific BCL2, BCL-XL and MCL-1 inhibitors
# Method: To determine whether these compounds also differentially affect cells with reduced expression of PSDMS, IMR32 and Kelly cells were each cultured in the presence of ABT-263, disulfiram, or elesclomol across a range of concentrations. Cell viability was measured by CellTiter-Glo® Luminescent Cell Viability Assay 72 hours after addition of the compound to cells. The fold viability relative to culture in the absence of the compound was determined for each cell line. […] In the experiment shown in FIG. 24, the lowest lower concentration of ABT-263 and disulfiram tested was 1 uM.
# ABT-263 targets several members of the BCL2 family, including BCL2 and BCL-XL.
# T47D cells [2] = test: The glucose/galactose drug screen; details: 10 mM Glucose or Galactose, Selleck anti cancer and natural product libraries
# Method: We conducted a second set of drug screens to identify unique sensitivities conferred by the Hi-OXPHOS state using parental T47D breast cancer cells (without 19S subunit suppression). For this screen, we used the NPC and CDL libraries as they contained the greatest number of hits in the Lo19S screen. We tested over 800 compounds at multiple concentrations and measured their effects on relative cell growth/viability when cells were grown under aerobic glycolysis conditions (glucose-supplemented medium) or forced mitochondrial respiration conditions (galactose-supplemented medium).
# The glucose/galactose drug screen—T47D cells growing in regular media were collected counted and after centrifugation cells were re-suspended in RPM1 media without glucose containing 10% dialyzed serum with the addition of either 10 mM glucose or 10 mM galactose, Cells were then plated at 1000 cells/well in 384-well opaque, white assay plates (Coming, N.Y.), 50 uL per well, and incubated overnight at 37°C./5% CO2. Application of the drug libraries and cell viability was executed as described above for the Lo19S drug screen.
# [3] = tested on: T47D cells with doxycycline inducible PSMD2 KD (Lo19S) versus control cells; test: Lo19S T47D drug screen (PSMD2 KD versus control cells, CellTiter-Glo); details: for viability of PSMD2 KD versus control cells: Selleck natural product library (NPC) and NIH bioactive compound library, selectivity less than for the anti-cancer library hits; for viability of PSMD2 KD versus control cells (log2 (shPSMD2/Control)): T47D, Lo19S state by dox-inducible PSMD2 shRNA, compound library screen, 72 h, CellTiter-Glo
# Method: The effect of each drug on viability of cells was calculated by averaging the duplicate experiments. The data is plotted in FIG. 16 as the log2 of the ratio of viability of PSMD2 KD versus control cells (log2 (shPSMD2/Control)). […] The Selleck natural product library (NPC) comprising 502 compounds in 5 doses and the. NIH bioactive compound library that includes 731 compounds in 4 doses were also screened using the same system.
# A deeper understanding of the proteasome inhibitor resistant state could yield insights into the molecular mechanisms activated by cells to cope with proteotoxic stress and elucidate new therapeutic strategies for cancer. With these goals in mind, we screened mechanistically diverse small molecule libraries to identify compound sensitivities altered by the Lo19S and Hi-OXPHOS states. An initial screen was conducted in the isogenic T47D model with transient induction of the Lo19S state as described above, We evaluated >4300 mechanistically well-defined compounds within 4 libraries. The compounds included approved cancer drugs (Selleck anti-cancer library: CDL), common natural products (Natural product library: NPC) and an ^-NIH bioactives library (NIH). Each of these compounds was tested at ≥4 concentrations. (Table S5, data not shown), An additional 2866 compounds from the Boston University's Chemical Methodology and Library Development (CMLD-BU) small molecule collection was screened at a single dose (BULL, see Table S5).
# (§1) Generation of the Lo19S T47D cell line—For the generation of the T47D Tet-inducible PSMD2 knockdown cell line—the TRIPZ vector with an inducible shRNA targeting PSMD2 was purchased from Dharmacon (clone V3THS_403760). It was introduced to the T47D cells according to manufactures protocol and cells were selected with puromycin 1 g/ml for one week. The cells were exposed to doxycycline for 24 hours and cells were FACS sorted for the top 10% of most RFP expressing cells (highest expression of shRNA). The cells were further cultured in the absence of doxycycline and PSMD2 knockdown was induced as specified in the text.
# After 48 hours the cells were collected counted and plated (in the absence of dox) at 1000 cells/well in 384-well opaque, white assay plates (Coming, NY), 50 uL per well, and incubated overnight at 37° C./5% CO2. Compound stocks from the Cancer drug library containing 349 bioactive compounds that were arrayed in dose 10 nM, 100 nM, 1 uM, 10 uM (Selleck anti-cancer compound library L3000), the natural products library containing 502 compounds that were utilized in 5 doses (dilution of 1:1000 of 2ug/ml, 0.2 ug/ml, 0.002/ug/ml, 0.0002 ug/ml), the NIH bioactive library including 731 drugs in dose of 10 nM, 100 nM, 1 uM, 10 uM and the Boston University's CMLD (Chemical Methodology and Library Development) compound deck containing 2866 compounds in one dose (10 uM), including novel chemotypes that uniquely probe three-dimensional space by employing stereochemical and positional variation within the molecular framework as diversity elements in library design. 50 nl of compounds were pin-transferred (V&P Scientific, CA, pin tool mounted onto Tecan Freedom Evo 150 MCA96 head, Tecan, Calif.) into duplicate assay plates and incubated for 72 h. The DMSO content was 0.1% within each well, Per plate, there are 32 wells of DMSO vehicle control and 32 wells of positive control compounds. After three days of incubation, 10 uL of CellTiter-Glo (Promega, Wis.) was added to each well, incubated for 10 minutes and the luminescence output was read on the M1000 Infinite Pro plate reader (Tecan, Calif.).
# T47D cells [4] = test: Drug library screen (Selleck anti-cancer, NPC, NIH bioactive), PSMD2 KD vs control T47D cells; details: Selleck anti-cancer compound library screen
# Method: Schematic representation of the drug screen setup. (FIG. 37A) 147D cells harboring a doxycycline-inducible PSMD2 shRNA were grown in the presence or absence of doxycycline for 48 hr. Cells were then collected, washed, and plated in the absence of doxycycline for 24 hr prior to exposure different compounds. Relative cell numbers were measured 3 days later.
# The relative viability of the Lo19S versus control cells was calculated for replica experiments and the log2 of the ratio is plotted. […] The relative viability of the respiring cells (Hi-OXPHOS) (gal) versus the control cells (glu) was calculated for replica experiments and the log2 of the ratio is plotted.
# After 48 hours the cells were collected, counted, and plated at 1000 cells/well in 384 well plates in duplicates for each cell line. Compounds from the Selleck Chemicals anti-cancer compound library (349 drugs in 4 concentrations; […]) were pinned the next day and viability was measured after 72 hours by the reduction of Resazurin (Ex=530 run, Em=590nin). (See FIG. 37A for schematic of screen.)
# T47D cells [5] = test: Cell viability, T47D cells with doxycycline-inducible PSMD2 shRNA (KD) vs control
# Method: FIGS. 37A-37E: Subunit suppression results in highly specific drug sensitivity alteration. Schematic representation of the drug screen setup. (FIG. 37A) 147D cells harboring a doxycycline-inducible PSMD2 shRNA were grown in the presence or absence of doxycycline for 48 hr. Cells were then collected, washed, and plated in the absence of doxycycline for 24 hr prior to exposure different compounds. Relative cell numbers were measured 3 days later. […] (FIGS. 37C-37E) The relative viability of the PSMD2 knockdown (KD) versus the control was calculated for replica experiments and the log2 of the ratio is plotted for 349 compounds from the Selleck anti-cancer L3000 drug library that were tested in 4 concentrations (FIG. 37C), the Selleck natural product library (NPC) comprising 502 compounds in 5 doses (FIG. 37D), and the NIH bioactive compound library that includes 731 compounds in 4 doses (FIG. 37E). Specific compounds are annotated.
# The effect of transient PSMD2 reduction on growth of T47D cells in the presence of different proteasome inhibitors (bortezomib, MLN9708, carfilzomib, oprozornib) was tested. T47D cells harboring a doxycycline inducible control shRNA (GFP) or a doxycycline-inducible PSMD2 shRNA (TurhoRFP) were incubated with doxycycline for 3 days. Cells were then split and grown in the absence of Dox and proteasome inhibitors were then added at various concentrations. Cells were maintained in culture and then counted.
# as §1, with “For” for “Generation of the Lo19S T47D cell line—For”, “line- the” for “line—the”, “Dhannacon” for “Dharmacon”, “μg/ml” for “g/ml”, “relevant Examples. The TRIPZ control GFP vector was created by removing the turboRFP from the TRIPZ control vector by digestion with Agel and ClaI and replacing it with GFP amplified with primers flanking with Agel and Clal restriction sites.” for “text.”
# Cell Viability Assay—Relative cell growth and survival were measured in 96-well microplate format in the shRNA experiments and in 384 well format in the drug toxicity assays, by using the fluorescent detection of resazurin dye reduction as an endpoint (544 nm excitation and 590 run emission). 2,500 cells in 96 wells format or 1,000 cells in 384 well format were plated 24 hours before compound exposure (for 72 hours or indicated time). Each analysis was performed at least with three replicas.
# [6] = tested on: T47D cells harboring a doxycycline inducible PSMD2 KD shRNA construct; test: Viability of PSMD2 knockdown versus control T47D cells, dose response and combinations (CellTiter-Glo); details: T47D, transient PSMD2 suppression versus control
# Method: Cell viability was measured by CellTiter-Glot Luminescent Cell Viability Assay 72 hours after addition of the compounds to cells.
# Cell viability was measured by CellTiter-Glo® Luminescent Cell Viability Assay 72 hours after addition of the compounds were added to cells.
# Cell viability was measured by CellTiter-Glolk Luminescent Cell Viability Assay 72 hours after addition of the compounds to cells.
# To directly test whether altered cellular metabolism can modulate the sensitivity of cancer cells to proteasome inhibitors, we engineered the breast cancer cell line T47D into Lo19S and increased OXPHOS states. Initially, we reconstituted the Lo19S state by transient suppression of the PSMD2 subunit of the 19S complex using an inducible shRNA.
# To induce a high OXPHOS (Hi-OXPHOS) state, we changed the carbon source in the cell culture media from glucose to galactose, which is poorly fermentable. This method has been previously shown to drive glutamine utilization by mitochondria and to thus increase mitochondrial respiration (Gohil et al., 2010). […] We reasoned that the Hi-OXPHOS signature we identified in Lo19S patient tumors may cooperate with the Lo19S state to further promote the ability of the cells to withstand proteotoxic stress.
# Cell viability—where indicated relative cell number following different drug treatment was conducted by plating cells at 1000 cells/well in 384 well plates. Indicated concentrations of compounds were added 24 hour after plating at least in triplicate for each condition. Viability was measured 72 hours after drug addition using cell titer-glo (Promega) according to manufactures protocol. Same protocol was applied for the experiments conducted for the Lo19S T47D, MCF7 and T47D in the context of altered carbon source only the cells were plated at 1000 cells/well in RPMI media (without glucose and with dialyzed serum) containing either 10 mM Glucose or lOmM galactose.
smiles,measurement,setting,value
Cc1nn(C)c(COc2ccc(N3CCN(S(=O)(=O)N(C)C)CC3)cc2)c1-c1cccc2c(CCCOc3cccc4ccccc34)c(C(=O)O)n(CCN3CCOCC3)c12 [A-1210477],"preferential sensitivity of IMR32 versus Kelly cells, compared among BCL2 family inhibitors",[1],much greater for ABT-263
COc1cc2c(cc1OC)[C@@H]1C(=O)c3ccc4c(c3O[C@@H]1CO2)C=CC(C)(C)O4 [Degeulin],relative viability change of cells grown in glucose versus galactose,T47D cells [2],increased sensitivity
CN1C(=O)[C@]23CC4=CC=C[C@H](O)[C@H]4N2C(=O)[C@@]1(CO)SS3 [Gliotoxin],viability of PSMD2 KD versus control cells,[3],selectively toxic to cells with PSMD2 knockdown
COc1ccc(-c2ccc3c(N4CCOCC4)nc(N4C[C@@H](C)O[C@@H](C)C4)nc3n2)cc1CO [Ku-0063794],growth inhibition of T47D cells with reduced level of PSMD2 vs control T47D cells,T47D cells [4],selectively inhibit growth
same,viability of PSMD2 KD versus control cells (log2 (shPSMD2/Control)),[3],selectively reduce the viability of PSMD2 KD cells versus control cells
CC[C@@H]1/C=C/C=C/C[C@H](C)[C@H](O)[C@](C)(O)C(=O)[C@H](C)[C@@H](O)[C@H](C)C(=O)[C@H](C)[C@@H](O)[C@H](C)/C=C/C(=O)O[C@H]2[C@@H](C)[C@@H](CC1)O[C@@]1(CC[C@@H](C)[C@@H](C[C@H](C)O)O1)[C@@H]2C [Oligomycin A],relative viability change of cells grown in glucose versus galactose,T47D cells [2],increased sensitivity
Nc1ccc2ncnc(NCCc3ccc(Oc4ccccc4)cc3)c2c1 [QNZ],relative viability change of cells grown in glucose versus galactose,T47D cells [2],increased sensitivity
C=C(C)[C@H]1Cc2c(ccc3c2O[C@@H]2COc4cc(OC)c(OC)cc4[C@@H]2C3=O)O1 [Rotenone],relative viability change of cells grown in glucose versus galactose,T47D cells [2],increased sensitivity
CC(C)C[C@H](NC(=O)[C@H](CCc1ccccc1)NC(=O)CN1CCOCC1)C(=O)N[C@@H](Cc1ccccc1)C(=O)N[C@@H](CC(C)C)C(=O)[C@@]1(C)CO1 [carfilzomib],resistance of cells harboring PSMD2 shRNA vs parental line (EC50),"T47D cells [5]; T47D, transient PSMD2 reduction",EC50 values increased considerably
"Nc1nc(Cl)nc2c1ncn2[C@H]1C[C@H](O)[C@@H](CO)O1 [cladribine, 2-chlorodeoxyadenosine]",growth inhibition of T47D cells with reduced level of PSMD2 vs control T47D cells,T47D cells [4],selectively inhibit growth
same,viability of PSMD2 KD versus control cells (log2 (shPSMD2/Control)),[3],selectively reduce the viability of PSMD2 KD cells versus control cells
CCCCc1oc2ccccc2c1C(=O)c1cc(I)c(OCCN(CC)CC)c(I)c1 [cordarone],viability of PSMD2 KD versus control cells,[3],selectively toxic to cells with PSMD2 knockdown
CC(C)C[C@H](NC(=O)CNC(=O)c1cc(Cl)ccc1Cl)B(O)O [ixazomib],fold increase in EC50 induced by transient PSMD2 knockdown (KD),"T47D cells [5]; T47D cells, PSMD2 KD vs control",50-100 fold
same,increase of proliferation inhibition EC50 on inducing the Lo19S state,[6],~4 fold
